Reference: patent US9743675B2, “Antimicrobial composition” (UNIVERSITY OF SURREY, priority 2009, dated 2017)
“And” between values parts separate entries of the source, which are not always exact repeats. Identical values can stand only once. Like-named read-outs stand apart in the source and are kept apart here.

How the values were obtained:
Salmonella enteritidis [1] = experiment: micro broth dilution, coniferaldehyde and vanillin with and without DHAA (Example 9); assay type: cell-based; conditions: Vanilin/Coniferylaldehyde 0/5 mM; DHAA 20 mM if combined
Experimental: All stock solutions were stored at 5° C. In vitro bioassay: The MIC of the different treatments was determined using a micro broth dilution method. […] Control wells were prepared by adding 100 μL acetone. […] […] The plates were placed in a laminar flow chamber for 8 hours to evaporate the solvent. […] Where possible, colonies were counted to obtain more precise quantitative data.

[2] = solubility in water, concluded from water extraction of heated pine shavings; assay type: physicochemical
Salmonella enterica [3] = experiment: perlite assay, survival of Salmonella enterica: vanillin with dehydro-abietic acid (Example 1); assay type: cell-based
Experimental: A 20 mmol solution of dehydroabietic acid in alcohol and water was also prepared.

Salmonella enterica [4] = assay type: cell-based
Experimental: 20 mmol solutions of ursolic acid, oleonic acid and betulin in alcohol were also prepared.

S. enteritidis = experiment: inhibition zone experiment on TLC plate; assay type: cell-based; conditions: FIG. 3
Experimental: Two test solutions were prepared, i.e.: (i) vanillin in combination with DHAA, and (ii) stilbene in combination with dehydro-abietic acid (DHAA). The activity of the solutions were then tested on several different micro-organisms, as follows.
A droplet of a test solution was placed on a TLC plate. The solvent was allowed to evaporate and a suspension of test micro-organisms (Gram-positive and Gram-negative bacteria) in broth was applied evenly onto the TLC plate. The plate was incubated overnight. To visualise microbial activity, the TLC plate was sprayed with tetrazolium salt solution. Microbial activity was indicated by a red-pink colour.

S. cerevisiae = experiment: inhibition zone experiment on TLC plate; assay type: cell-based; conditions: FIG. 8, S. cerevisiae; on its own or in combination with DHAA
Experimental: Two test solutions were prepared, i.e.: (i) vanillin in combination with DHAA, and (ii) stilbene in combination with dehydro-abietic acid (DHAA). The activity of the solutions were then tested on several different micro-organisms, as follows. A droplet of a test solution was placed on a TLC plate. The solvent was allowed to evaporate and a suspension of test micro-organisms (Gram-positive and Gram-negative bacteria) in broth was applied evenly onto the TLC plate. The plate was incubated overnight. To visualise microbial activity, the TLC plate was sprayed with tetrazolium salt solution. Microbial activity was indicated by a red-pink colour. To show the efficacy of the solutions against filamentous fungi, the inoculated TLC plates were incubated until the fungus started to sporulate. To show efficacy against yeast, after incubation, the TLC plates were pressed against a nutrient agar plate. The plate was incubated until yeast colonies were clearly visible.

Salmonella enteritidis [5] = experiment: perlite bio-assay with pure DHAA and vanillin (Example 7); assay type: cell-based; conditions: DHAA (10 μl of 20 mM) if +DA
Experimental: Also, one 20 mM stock solution of DHAA was made in acetone. Bioassay test: The test was carried out using 1.5 ml Eppendorf tubes containing 10 mg of fine perlite. Ten μl of each concentration of vanillin was dispensed into four Eppendorf tubes to obtain four replicates of each concentration. Two of these received 10 μl of DHAA. The tubes were left in laminar flow chamber for 3 h to allow evaporation of the acetone. […] To keep the perlite moist during incubation, 10 μl of sterile R.O water was dispensed into each tube. As controls, two tubes received DHAA only and two tubes received R.O water only. The tubes were incubated overnight, and bacterial survival was quantified by plating the content of each tube onto nutrient agar for the bacterial count.

Salmonella enterica [6] = test system: Salmonella enterica

COc1cc(/C=C/C=O)ccc1O [Coniferyl aldehyde, coniferaldehyde]
Colony counts (Salmonella enteritidis [1]): TMTC

CC(C)c1ccc2c(c1)CC[C@H]1[C@](C)(C(=O)O)CCC[C@]21C [Dehydro-Abietic acid, dehydroabietic acid]
solubility in water [2]: poorly-soluble in water
Average no of cfu recovered per droplet (Salmonella enterica [3]; DHAA 20 mmol alone, vanillin 0): >100 cfu

COc1cc(C=O)ccc1O [Vanillin, 4-hydroxy-3-methoxybenzaldehyde]
Average no. of cfu recovered per droplet (Salmonella enterica [4]): >100 cfu
inhibition of S. enteritidis on TLC plate (S. enteritidis): ineffective
concentration of vanillin at which it is effective (S. cerevisiae): 5 mM
Salmonella enteritidis count (Salmonella enteritidis [5]; vanillin 0.313 mM): TMTC
Salmonella enteritidis count (Salmonella enteritidis [5]; vanillin 2.5 mM): TMTC
Salmonella enteritidis count (Salmonella enteritidis [5]; vanillin 5 mM): TMTC
Salmonella enteritidis count (Salmonella enteritidis [5]; vanillin 10 mM): 394 CFU/tube and 500 CFU/tube
Average no. of cfu recovered per droplet (Salmonella enterica [6]; vanillin 20 mmol, citric acid 20 mmol if combined): >100 cfu
Average no of cfu recovered per droplet (Salmonella enterica [3]; vanillin 0.001 mmol, DHAA 20 mmol if combined): >100 cfu
Average no of cfu recovered per droplet (Salmonella enterica [3]; vanillin 0.019 mmol, DHAA 20 mmol if combined): >100 cfu
Average no of cfu recovered per droplet (Salmonella enterica [3]; vanillin 0.039 mmol, DHAA 20 mmol if combined): >100 cfu
Average no of cfu recovered per droplet (Salmonella enterica [3]; vanillin 0.078 mmol, DHAA 20 mmol if combined): >100 cfu
Average no of cfu recovered per droplet (Salmonella enterica [3]; vanillin 0.156 mmol, DHAA 20 mmol if combined): >100 cfu
Average no of cfu recovered per droplet (Salmonella enterica [3]; vanillin 0.313 mmol, DHAA 20 mmol if combined): >100 cfu
Average no of cfu recovered per droplet (Salmonella enterica [3]; vanillin 0.625 mmol, DHAA 20 mmol if combined): >100 cfu
Average no of cfu recovered per droplet (Salmonella enterica [3]; vanillin 1.25 mmol, DHAA 20 mmol if combined): >100 cfu
Average no of cfu recovered per droplet (Salmonella enterica [3]; vanillin 2.5 mmol, DHAA 20 mmol if combined): >100 cfu
Average no of cfu recovered per droplet (Salmonella enterica [3]; vanillin 5 mmol, DHAA 20 mmol if combined): >100 cfu
Average no of cfu recovered per droplet (Salmonella enterica [3]; vanillin 10 mmol, DHAA 20 mmol if combined): >100 cfu
Average no of cfu recovered per droplet (Salmonella enterica [3]; vanillin 20 mmol, DHAA 20 mmol if combined): >100 cfu
inhibitory effect on Salmonella (Salmonella enterica [3]; vanillin on its own, 20 mmol or less): no inhibitory effect

C=C(C)[C@@H]1CC[C@]2(CO)CC[C@]3(C)[C@H](CC[C@@H]4[C@@]5(C)CC[C@H](O)C(C)(C)[C@@H]5CC[C@]43C)[C@@H]12 [betulin]
Average no. of cfu recovered per droplet (Salmonella enterica [4]; triterpenoid 20 mmol alone, vanillin 0): >100 cfu

O=C(O)CC(O)(CC(=O)O)C(=O)O [citric acid]
Average no. of cfu recovered per droplet (Salmonella enterica [6]; citric acid 20 mmol alone, vanillin 0): >100 cfu

CC1(C)CC[C@]2(C(=O)O)CC[C@]3(C)C(=CC[C@@H]4[C@@]5(C)CC[C@H](O)C(C)(C)[C@@H]5CC[C@]43C)[C@@H]2C1 [oleanic acid, oleanolic acid]
Average no. of cfu recovered per droplet (Salmonella enterica [4]): >100 cfu

C[C@H]1[C@H](C)CC[C@]2(C(=O)O)CC[C@]3(C)C(=CC[C@@H]4[C@@]5(C)CC[C@H](O)C(C)(C)[C@@H]5CC[C@]43C)[C@H]12 [ursolic acid]
Average no. of cfu recovered per droplet (Salmonella enterica [4]): >100 cfu
